Measured values taken from patent US11312676B2, “Small molecule stimulators of steroid receptor coactivator proteins and their use in the treatment of cancer” (BAYLOR COLLEGE OF MEDICINE, priority 2014, dated 2022).

Tested on: SRC-1, SRC-2 and SRC-3 protein levels
Assay: Immunoblot of SRC protein levels in HeLa cells
Assay type: cell-based
Settings: 24 hours
Experimental: For Western blotting, cells were harvested and lysed in lysis buffer (50 mM Tris, pH 8.0, 150 mM NaCl, 10% glycerol, 0.5% NP40, protease and phosphatase inhibitor) and then centrifuged for 15 min at 14000 rpm at 4° C. After total cellular protein concentration was determined by Bradford analysis (Bio-Rad, Hercules, Calif.), protein lysates were loaded onto and resolved by sodium dodecyl sulfate-polyacrylamide gel electrophoresis (SDS-PAGE) and transferred to PVDF membranes (BioRad) which were blocked and incubated with indicated antibodies. For immunoprecipitation, 10 μg of plasmid encoding FLAG-SRC-3 was transfected into HeLa cells with 90% confluence in one 10 cm plate with lipofectamine 2000 (Invitrogen). Twenty-four hours after transfection, the cells were treated with MCB-613 for one hour and lysed with lysis buffer (25 mM Tris-Cl pH7.5, 150 mM NaCl, 5% glycerol, 1 mM EDTA, 1% Triton X-100, protease and phosphatase inhibitor) at 4° C. After a 30-second sonication, the lysate was cleared by centrifugation at 14000 rpm at 4° C. for 15 minutes and was incubated with anti-Flag-M2 agarose affinity gel (Sigma) for four hours. The agarose gel was washed four times with washing buffer (25 mM Tris pH 8.0, 150 mM NaCl, 1 mM EDTA, 1% Triton X-100) and resuspended with SDS loading buffer for Western blotting.

CCC1CC(=Cc2cccnc2)C(=O)C(=Cc2cccnc2)C1 (stereo not shown) [MCB-613, 4-Ethyl-2,6-bis-pyridin-3-ylmethylene-cyclohexanone]
SRC-1, SRC-2 and SRC-3 protein levels: decreases
